From patent publication US7495023B2, “Thio semicarbazone and semicarbozone inhibitors of cysteine proteases and methods of their use” (The Regents of the University of California, priority 2002, dated 2009)
“Also recorded” adds a separate entry of the source. Like-named read-outs stand apart in the source and are kept apart here. Values belong to the compound of their own block, whether it stands above or below them.

Experiments:
J774 macrophages = experiment: Toxicity to mammalian host cells in the cell culture assay; assay type: cell-based
Protocol: (§1) Drug Screening in Cell Culture. Mammalian cells are routinely cultured in RPMI-1640 medium supplemented with 5-10% heat-inactivated fetal calf serum (FCS) at 37° C. in 5% CO2. The Y strain of T. cruzi is maintained by serial passage in bovine embryo skeletal muscle (BESM) cells. Infectious trypomastigotes are collected from culture supernatants. For drug assays, J774 macrophages were irradiated (5000 rad) and plated onto six-well tissue culture plates 24 h prior to infection with ˜106 trypomastigotes/well. Parasites are removed 2 h postinfection, and the medium is supplemented with the appropriate cysteine protease inhibitor (10 μM). Inhibitor stocks (10 mM) in DMSO were stored at 4° C. J774 monolayers treated with a blank containing DMSO are used as a negative control, and monolayers treated with a known trypanocidal inhibitor, 10 μM N-methyl piperazine-Phe-homoPhe-vinyl sulfone phenyl (N-Pip-F-hF-VSPh) acted as a positive control (Engel et al., J. Exp. Med., 188:725-734 (1998)). RPMI medium with or without inhibitor is replaced every 48 h. Cultures are maintained for up to 30 days and monitored daily by contrast phase microscopy. […] The comparative effectiveness of each inhibitor was estimated from plots of the duration of the intracellular cycle of T. cruzi (days) in treated vs untreated control wells.
The toxicity of compounds to mammalian host cells was also evaluated in the assay.

[1] = molecular target: T. cruzi cathepsin L-like protease (cruzain) (Trypanosoma cruzi, UniProt P25779); experiment: biochemical
Chain of T. cruzi cathepsin L-like protease (cruzain) (P25779 123-467): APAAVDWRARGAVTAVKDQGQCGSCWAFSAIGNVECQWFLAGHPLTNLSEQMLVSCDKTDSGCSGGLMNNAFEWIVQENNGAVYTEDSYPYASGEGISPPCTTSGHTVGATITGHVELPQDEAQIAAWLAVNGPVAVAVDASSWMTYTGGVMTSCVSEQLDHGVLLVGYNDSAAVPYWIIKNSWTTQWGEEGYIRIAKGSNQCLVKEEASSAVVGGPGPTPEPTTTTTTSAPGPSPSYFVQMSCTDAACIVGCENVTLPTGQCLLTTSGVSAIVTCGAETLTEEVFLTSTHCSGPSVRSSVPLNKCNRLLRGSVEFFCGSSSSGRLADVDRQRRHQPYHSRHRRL
Protocol: (§2) IC50 Determinations. Inhibitors were screened for effectiveness against the T. cruzi cathepsin L-like protease (cruzain) using purified recombinant protein. Cruzain (1 nM) was incubated with 20-50000 nM inhibitor in 100 mM sodium acetate-5 mM DTT buffer (pH 5.50, buffer A) for 5 min at room temperature. […] The increase in fluorescence (excitation at 355 nm and emission at 460 nm) was followed with an automated microtiter plate spectrofluorimeter (Molecular Devices, spectraMAX Gemini). Inhibitor stock solutions were prepared at 20 mM in DMSO, and serial dilutions were made in DMSO (0.7% DMSO in assay). Controls were performed using enzyme alone and enzyme with DMSO. IC50 values were determined graphically using inhibitor concentrations in the linear portion of a plot of inhibition versus log [I] (seven concentrations were tested, and at least two were in the linear range).

T. cruzi (Y strain) = experiment: Anti-trypanosomal cell culture assay, T. cruzi-infected J774 macrophages; assay type: cell-based; settings: for effect on T. cruzi in cell culture (trypanocidal / trypanostatic / inactive): inhibitor 10 μM, cultures up to 30 days
Protocol: as §1, with “Parasites are removed 2 h postinfection, and the medium is supplemented with the appropriate cysteine protease inhibitor (10 μM).” left out

[2] = Solubility observations (cell culture medium, methanol); assay type: physicochemical
parasite P. falciparum = experiment: WHO screen against P. falciparum parasites; assay type: cell-based
Source text: (§3) Thio semicarbazones have been tested against falcipain 2, which is the cysteine protease of parasites related to malaria. […] The WHO (World Health Organization) helped to screen compound 1i against a couple of parasite strains. It has activity against T. cruzi and P. falciparum parasites.

cruzain = cruzain (Trypanosoma cruzi, UniProt P25779); assay type: biochemical; settings: incubation 90 s to 24 h
Chain of cruzain (P25779 123-467): as above
Protocol: The time dependence of inhibition was determined by incubating cruzain with inhibitors, DMSO, or enzyme alone at room temperature for time points between 90 s and 24 h. The enzymatic activity was determined as above.
A known irreversible inhibitor, K002 (morpholino urea-Phe-homoPhe-vinyl sulfone benzene; Axys Pharmaceuticals Inc., South San Francisco, Calif.), and a known reversible covalent inhibitor, leupeptin, were used as controls for the thio semicarbazones.

T. cruzi parasites = experiment: WHO screen against T. cruzi parasites; assay type: cell-based
Source text: as §3

falcipain-2 = molecular target: T1, falcipain-2 (Plasmodium falciparum, UniProt Q8I6U4); experiment: Inhibition of falcipain-2; assay type: biochemical
T1 sequence (Q8I6U4 244-484): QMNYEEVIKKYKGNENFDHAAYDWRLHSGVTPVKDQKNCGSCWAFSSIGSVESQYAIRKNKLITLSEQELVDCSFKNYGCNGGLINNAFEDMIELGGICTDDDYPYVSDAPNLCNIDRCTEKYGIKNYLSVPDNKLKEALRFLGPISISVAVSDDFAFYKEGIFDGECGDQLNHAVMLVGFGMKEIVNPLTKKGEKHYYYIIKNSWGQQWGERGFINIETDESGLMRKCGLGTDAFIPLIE
Source text: as §3

T. cruzi [3] = settings: cited from earlier work
T. cruzi [4] = settings: mouse model; cited from earlier work
human cathepsin B = human cathepsin B (Homo sapiens, UniProt P07858); experiment: Inhibition of cathepsin B protease activity; assay type: biochemical
Protocol: as §2, with “protein.” for “protein. Cruzain (1 nM) was incubated with 20-50000 nM inhibitor in 100 mM sodium acetate-5 mM DTT buffer (pH 5.50, buffer A) for 5 min at room temperature.”
Enzyme assays to test the ability of thio semicarbazone compounds to inhibit the cysteine protease activity of rhodesain and cathepsin B were carried out as described for assays to test inhibition of protease activity by cruzain. In these assays, inhibition of cruzain is included as a positive control.

[5] = 5 min incubation, room temperature, pH 5.50, read-out: IC50 against cruzain

Compound: COc1ccccc1-c1ccc(C=NNC(N)=S)o1 [Compound 1c, 5-(2-Methoxyphenyl)-2-furancarboxaldehyde Thio Semicarbazone]
- toxicity to host cells, in words (J774 macrophages): Toxicity
- IC50 [1]: < 0.3 µM
- melting point: 209.5 to 211.1 °C

Compound: NC(=S)NN=Cc1ccc(-c2ccc(Br)cc2)o1 [Compound 1f, 5-(4-Bromophenyl)-2-furancarboxaldehyde Thio Semicarbazone]
- survival of infected host cells / duration of trypanostatic effect (T. cruzi (Y strain); inhibitor 10 μM (method), untreated infected cells die within 5 days): 14 days
- effect on T. cruzi in cell culture (trypanocidal / trypanostatic / inactive) (T. cruzi (Y strain)): trypanostatic
- IC50 [1, 5]: < 0.3 µM
- solubility in the cell culture medium, in words [2]: crystallized in the cell culture medium

Compound: CCC(=NNC(N)=S)c1cccc(Br)c1 [Compound 1i, 3′-Bromopropiophenone Thio Semicarbazone]
- effect on T. cruzi in cell culture (trypanocidal / trypanostatic / inactive) (T. cruzi (Y strain)): significant trypanocidal activity; also recorded: cured of trypanosomal infection; also recorded: trypanocidal effect
- time postinfection that cells stayed healthy and parasite-free (T. cruzi (Y strain); treated for three weeks, then compound removed, experiment terminated): ≥ 6.5 weeks
- IC50 (parasite P. falciparum; Plasmodium falciparum): 16 to 32 µM
- activity against P. falciparum parasites (parasite P. falciparum; WHO screen): has activity
- time dependence of cruzain inhibition (cruzain): time-dependent
- toxicity to host cells, in words (J774 macrophages): without toxicity to host cells
- activity against T. cruzi parasites (T. cruzi parasites): has activity
- solubility in the cell culture medium, in words [2]: without toxicity to host cells or solubility problems

Compound: benzyloxy-carbonyl-L-phenylalanyl L-alanine fluoromethyl ketone [Z-Phe-Ala-FMK]
- effect on replication and differentiation of T. cruzi in cultures (T. cruzi [3]): blocks replication and differentiation of the parasite

Compound: CN1CCN(C(=O)NC(Cc2ccccc2)C(=O)NC(C=CS(=O)(=O)c2ccccc2)CCc2ccccc2)CC1 (stereo not shown) [N-Pip-F-hF-VSPh, N-methyl piperazine-Phe-homoPhe-vinyl sulfone phenyl, reference compound]
- effect on T. cruzi in cell culture (trypanocidal / trypanostatic / inactive) (T. cruzi (Y strain)): unable to survive
- outcome of treatment of T. cruzi-infected mice (T. cruzi [4]): resulted in a cure

Compound: O=C(N[C@H](/C=C/S(=O)(=O)c1ccccc1)CCc1ccccc1)[C@H](Cc1ccccc1)NC(=O)N1CCOCC1 [Compound K002, morpholino urea-Phe-homoPhe-vinyl sulfone benzene]
- IC50 (human cathepsin B; read-out: cathepsin B IC50 (μM) 5 min preincubation, 5 min preincubation): 0.5 µM
- IC50 (human cathepsin B; read-out: cathepsin B IC50 (μM) 30 min preincubation, 30 min preincubation): < 0.1 µM
- time dependence of cruzain inhibition (cruzain): rapidly time-dependent

Compound: NC(=S)NN=Cc1ccc(-c2ccc(Cl)cc2)o1 [Compound 1b, 5-(4-Chlorophenyl)-2-furancarboxaldehyde Thio Semicarbazone]
- IC50 [1, 5]: < 0.3 µM
- solubility in the cell culture medium, in words [2]: solubility (1b) appears to be a problem

Compound: NC(=S)NN=Cc1ccc(-c2cccc(Cl)c2)o1 [Compound 1e, 5-(3-Chlorophenyl)-2-furancarboxaldehyde Thio Semicarbazone]
- survival of infected host cells (T. cruzi (Y strain); compound at 5 μM, untreated infected cells die within 5 days): 10 days
- effect on T. cruzi in cell culture (trypanocidal / trypanostatic / inactive) (T. cruzi (Y strain)): trypanostatic
- concentration at which toxicity to host cells was observed (J774 macrophages): 10 µM
- IC50 [1, 5]: < 0.3 µM
- melting point: 198.8 to 199.8 °C

Compound: COc1ccc2ccccc2c1C=NNC(N)=S [Compound 1n, 2-Methoxy-1-naphthaldehyde Thio Semicarbazone]
- toxicity to host cells, in words (J774 macrophages): Toxicity
- IC50 [1, 5]: 0.56 µM

Continued, in another order:

- IC50 (falcipain-2): 0.15 µM
- cruzain inhibitory activity, in words [1]: better IC50 values than 1i
- IC50 [1, 5]: 0.02 µM
- increase in activity over 1i (cruzain) ([1]; compared to 1i): ~5 fold
Compound: CCC(=NNC(N)=S)c1ccc(Cl)c(Cl)c1 [Compound 2i, 3′,4′-Dichloropropiophenone Thio Semicarbazone]

- cruzain inhibitory activity, in words [1]: better than that of 1i
- solubility in methanol, in words ([2]; methanol): poorest solubility in methanol
Compound: CC1CN(C(N)=S)N=C1c1ccc(Cl)c(Cl)c1 (stereo not shown) [Compound 4f, 3-(3,4-Dichlorophenyl)-4-methyl-2-pyrazoline-1-thiocarboxamide]
- effect on T. cruzi in cell culture (trypanocidal / trypanostatic / inactive) (T. cruzi (Y strain)): trypanostatic
